Assay results published in patent US4794079A, “Determination of hydrogen peroxide using fluorogenic dihydroquinolone and dihydrocoumarin indicators” (Miles Inc., priority 1985, dated 1988).

Biological target: T1, horseradish peroxidase (Armoracia rusticana, UniProt P00433)
T1 sequence (P00433 31-353): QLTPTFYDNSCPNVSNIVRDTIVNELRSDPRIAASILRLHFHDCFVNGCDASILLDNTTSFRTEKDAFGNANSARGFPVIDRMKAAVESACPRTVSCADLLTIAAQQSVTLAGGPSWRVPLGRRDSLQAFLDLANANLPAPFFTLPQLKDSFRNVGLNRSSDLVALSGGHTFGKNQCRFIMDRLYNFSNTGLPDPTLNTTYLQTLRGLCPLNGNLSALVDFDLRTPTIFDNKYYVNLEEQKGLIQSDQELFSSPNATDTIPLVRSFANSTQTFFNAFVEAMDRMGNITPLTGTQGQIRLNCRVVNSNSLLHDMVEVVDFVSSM
Test: Detection of hydrogen peroxide: fluorescence of indicator compounds after adding horseradish peroxidase and hydrogen peroxide
Assay type: biochemical
Details: 1.0 μM compound; for Relative Fluorescence of Indicator Compounds, Fluorescence Units, 0 secs: sodium phosphate buffer pH 7.0 or 7.5, 37° C., nM of fluorescent standard 7-hydroxy-3-(N-ethylcarboxamido)coumarin giving the same light output
Procedure: A 1.0 μM, pH 7.0 or 7.5, sodium phosphate buffer solution of the dihydroquinolones and dihydrocoumarins listed in the Table below were prepared by successive dilutions with the buffer of an ethanol or DMF-ethanol solution of the appropriate compound. The solution was warmed in a 37° C. bath, then a 40 microliter (μL) of 1 mg/mL horseradish peroxidase enzyme was added in one portion. The contents of the cuvette were mixed and the fluorescence was monitored for at least 50 seconds (the quartz cell and its contents were held at a constant 37° C.). A quantity of hydrogen peroxide diluted in cold water and stored at 0° for less than eight hours was then added in an amount suitable for the desired ratio of dihydroquinolone to peroxide. The fluorescence was then monitored over a 600 second time span. Fluorescent values for compounds (5), (6), (7), (11), (16), and (17) were reported in units of concentration (nM) of the flourescent standard 7 -hydroxy-3-(N-ethylcarboxamido) coumarin (U.S. Pat. No. 4,273,715) which would be required to achieve the same fluorescence light output as the subject of study. Compound (8) is reported in photons/second. All slit widths were set at 2 nm (nanometers).
Fluorescence was measured in quartz cuvettes on an SLM 8000 spectrofluorometer (SLM Instruments, Inc. Urbana, Ill.). A Hewlett-Packard8915A computer was used to process spectra.

[1] = 25 secs, pH 7.0 or 7.5, 37° C., nM of fluorescent standard equivalent
[2] = 100 secs, pH 7.0 or 7.5, 37° C., nM of fluorescent standard equivalent
[3] = 200 secs, pH 7.0 or 7.5, 37° C., nM of fluorescent standard equivalent
[4] = 600 secs, pH 7.0 or 7.5, 37° C., nM of fluorescent standard equivalent

Row | SMILES | Relative Fluorescence of Indicator Compounds, Fluorescence Units, 0 secs (0 secs) [nM] | Relative Fluorescence of Indicator Compounds, Fluorescence Units, 25 secs [1] [nM] | Relative Fluorescence of Indicator Compounds, Fluorescence Units, 100 secs [2] [nM] | Relative Fluorescence of Indicator Compounds, Fluorescence Units, 200 secs [3] [nM] | Relative Fluorescence of Indicator Compounds, Fluorescence Units, 600 secs [4] [nM] | Relative Fluorescence of Indicator Compounds, Fluorescence Units, 50 secs (50 secs, pH 7.0 or 7.5, 37° C., nM of fluorescent standard equivalent) [nM] | Fluorescence Units, 0 secs (0 secs, pH 7.0 or 7.5, 37° C., excitation 400 nm, emission 450 nm) [photons/second] | Fluorescence Units, 25 secs (25 secs, pH 7.0 or 7.5, 37° C., excitation 400 nm, emission 450 nm) | Fluorescence Units, 50 secs (50 secs, pH 7.0 or 7.5, 37° C., excitation 400 nm, emission 450 nm) | Fluorescence Units, 100 secs (100 secs, pH 7.0 or 7.5, 37° C., excitation 400 nm, emission 450 nm) | Fluorescence Units, 200 secs (200 secs, pH 7.0 or 7.5, 37° C., excitation 400 nm, emission 450 nm) | Fluorescence Units, 600 secs (600 secs, pH 7.0 or 7.5, 37° C., excitation 400 nm, emission 450 nm)
1 | CN(C)c1ccc2c(c1)NC(=O)C(C(=O)[O-])C2.[K+] (stereo not shown) [Compound 7, 7-Dimethylamino-3-carboxy-3,4-dihydro-2-quinolone potassium salt] | 1.4 | 12.3 | 22.2 | 24.3 | 24.6 | – | – | – | – | – | – | –
2 | CCNC(=O)C1Cc2ccc(N(C)C)cc2N(C)C1=O (stereo not shown) [Compound 11, 7-Dimethylamino-3-(N-ethylcarboxamido)-3,4-dihydro-1-methyl-2-quinolone] | 4.3 | 8.9 | 101.5 | 133.5 | 142.5 | – | – | – | – | – | – | –
3 | CCOC(=O)C1Cc2ccc(O)cc2N(C)C1=O (stereo not shown) [Compound 16, 7-Hydroxy-3-carbethoxy-3,4-dihydro-1-methyl-2-quinolone] | 1.3 | 4.3 | 5.7 | 6.3 | 6.3 | – | – | – | – | – | – | –
4 | CCOC(=O)C1Cc2cc3c4c(c2OC1=O)CCCN4CCC3 (stereo not shown) [Compound 17, [2,3,6,7,9,10]-Hexahydro-10-carbethoxy-11-oxo-1H,5H,11H-[1]benzopyran[6,7,8-ij]quinolizine] | 0.6 | 8.8 | 13.0 | 25.9 | 42.5 | – | – | – | – | – | – | –

Now from value to compound:

Row | Relative Fluorescence of Indicator Compounds, Fluorescence Units, 0 secs (0 secs) [nM] | Relative Fluorescence of Indicator Compounds, Fluorescence Units, 25 secs [1] [nM] | Relative Fluorescence of Indicator Compounds, Fluorescence Units, 100 secs [2] [nM] | Relative Fluorescence of Indicator Compounds, Fluorescence Units, 200 secs [3] [nM] | Relative Fluorescence of Indicator Compounds, Fluorescence Units, 600 secs [4] [nM] | Relative Fluorescence of Indicator Compounds, Fluorescence Units, 50 secs (50 secs, pH 7.0 or 7.5, 37° C., nM of fluorescent standard equivalent) [nM] | Fluorescence Units, 0 secs (0 secs, pH 7.0 or 7.5, 37° C., excitation 400 nm, emission 450 nm) [photons/second] | Fluorescence Units, 25 secs (25 secs, pH 7.0 or 7.5, 37° C., excitation 400 nm, emission 450 nm) | Fluorescence Units, 50 secs (50 secs, pH 7.0 or 7.5, 37° C., excitation 400 nm, emission 450 nm) | Fluorescence Units, 100 secs (100 secs, pH 7.0 or 7.5, 37° C., excitation 400 nm, emission 450 nm) | Fluorescence Units, 200 secs (200 secs, pH 7.0 or 7.5, 37° C., excitation 400 nm, emission 450 nm) | Fluorescence Units, 600 secs (600 secs, pH 7.0 or 7.5, 37° C., excitation 400 nm, emission 450 nm) | SMILES
5 | 1.4 | 81.5 | 101.5 | 101.5 | 101.25 | – | – | – | – | – | – | – | CCOC(=O)C1Cc2ccc(N(C)C)cc2NC1=O (stereo not shown) [Compound 5, 7-Dimethylamino-3-carbethoxy-3,4-dihydro-2-quinolone]
6 | < 0.12 | 4.0 | 11.0 | 11.25 | 10.8 | 8.75 | – | – | – | – | – | – | CCOC(=O)C1Cc2ccc(NC)cc2NC1=O (stereo not shown) [Compound 6, 7-Methylamino-3-carbethoxy-3,4-dihydro-2-quinolone]
7 | – | – | – | – | – | – | < 428 | 20,142 photons/second | 27,000 photons/second | 29,000 photons/second | 30,000 photons/second | 30,000 photons/second | CCNC(=O)C1Cc2ccc(N(C)C)cc2NC1=O (stereo not shown) [Compound 8, 7-Dimethylamino-3-(N-ethylcarboxamido)-3,4-dihydro-2-quinolone]
